Converted amounts (≈) assume the structure as drawn. Read-outs that look alike come from different tables or passages of the source.
Columns and labels:
[1] = HTChem stab assay (chemical stability in buffer pH2, pH4 and pH7 vs DMSO reference); assay type: physicochemical
Description: HTChem stab assay was used to assess the chemical stability of the compounds. 72 h stirring at rt in a buffer pH2, pH4 and pH7 vs a reference DMSO solution. HTChem stab assay is based on the handbook of Pharmaceutical Stress Testing, Predicting Drug Degradation, second edition, authors Baertschi, Alsante, Reed ISBN 978-143980179-6.
Compounds were plated (1 μl 10 mM DMSO stock in 96 well plate (DMSO control+3 pH conditions), one plate per condition).
200 μL of respectively DMSO, Buffer/DMSO mix pH2, Buffer/DMSO mix pH4 and Buffer/DMSO mix pH7 was added.
After 72 h shaking (300 rpm) at room temperature the samples were analysed by LC/UV/MS. Chromatograms of samples (stability conditions) were compared with the chromatograms of control sample (DMSO). Extra peaks were flagged and identified by mass spectrometry. Sample purity (reference included) were reported.
• pH3 buffer: For 11; weigh 4.14 g NaH2PO4·H2O, add 600 ml H2O, add H3PO4 to pH3, add H2O to 1000 ml. Filter over 0.2 μm and store at 4° C. Expires after 30 days. • pH6 buffer: For 1 l; weigh 4.14 g NaH2PO4·H2O, add 600 ml H2O, add 1N NaOH to pH6, add H2O to 1000 ml. Filter over […] and store at 4° C. Expires after 30 days.
• pH2 Buffer/DMSO (StabSolvent): mix 2 parts of HCl 0.1N with 1 part of DMSO • pH4 Buffer/DMSO (StabSolvent): mix 2 parts of buffer pH3 with 1 part of DMSO • pH7 Buffer/DMSO (StabSolvent): mix 2 parts of buffer pH6 with 1 part of DMSO measure pH prior to use.
Instrument: Acquity UPLC; Column: Acquity HSS T3, 50 mm length×2.1 mm i.d., 1.8 μm particle size. Detectors: PDA (250-350 nm) and SQD2 (90-1500m/z). Mobile phase A: 0.1% Formic acid in water; Mobile phase B: 0.1% Formic acid in Acetonitrile.
Injection volume: 5 μL, flow rate 0.6 mL/min.
Data processing including peak integration and identification was done with Waters OpenLynx software.

[2] = test system: Mycobacterium tuberculosis strain H37Rv; test: Test 2: MIC determination against M. tuberculosis, resazurin fluorescence; assay type: cell-based; settings: Test 2, M. tuberculosis H37Rv; for MIC90: read-out: Bacterial activity MIC90; for IC50: read-out: Bacterial activity pMIC50 (converted)
[3] = Metabolic stability in liver microsomes (intrinsic clearance); assay type: in vitro ADME
Description: The test compound was incubated under the generic condition (0.5 mg/ml microsomal protein, 1 mM NADPH, 1 mM MgCl2, and 0.1 M phosphate buffer, pH 7.4, 37° C.) at a defined substrate concentration (typically 1 μM) in liver microsomes of selected species across a time course (typically 0, 5, 10, 20, 40 and 60 minutes) at Cyprotex (Cheshire, UK). The liver microsomes, buffer and test compound will be pre-incubated for 5 minutes. The addition of the co-factor NADPH will initiate the reaction and the reaction was terminated by addition of acetonitrile. The samples were centrifuged prior to analysis by LC-MS/MS analysis. The relative amount of parent compound remaining in the active incubations vs. the control incubations (t=0 mins) for each compound was measured by peak area comparison. The in vitro metabolic half-life (t1/2) was calculated using the slope of the log-linear regression from the percentage parent compound remaining versus time relationship (κ), The in vitro intrinsic clearance (Cl^int) (μl/min/mg microsomal protein) was calculated using the in vitro metabolic half-life, incubation volume and the weight of microsomal protein in the incubation.

[4] = test system: Salmonella typhimurium Ames II Mixed Strains (TA7001-TA7006) and TA98; test: Genotoxicity assay (AmesIIb mutagenicity test); assay type: cell-based; further: key: an AmesIIb score of 1 shows no genotoxicity signals
Source text: The aim is to evaluate compounds (and/or their metabolites) for their ability to induce reverse mutations in a gene of histidine-requiring Salmonella typhimurium strains to produce histidine-independent strains of these bacteria, in the absence and in the presence of a mammalian metabolic activation system.
Point mutations were made in the histidine (His) operon in Salmonella typhimurium, rendering the bacteria incapable of producing histidine. These single base substitutions are positioned at strategic points within the His gene, resulting in his-organisms that cannot grow unless histidine is supplied. When a mutagenic event occurs, base substitutions within the His gene then cause the reversion of the his-Ames II™ strains to His.
A chemical's mutagenic potential is assessed by exposing these his-organisms to varying concentrations of chemical and selecting for the reversion event. Medium lacking histidine is used for this selection which allows only those cells that have undergone the his- to His reversion to survive and grow.
The assay may be performed using a kit and instructions from Xenometric. The two strains provided in the Xenometric kit are the Ames II™ Mixed Strains and TA98. The Ames II™ Mixed Strains contains an equimolar mixture of the Ames II™ TA7001-TA7006 strains. Individually, these strains are designed to revert by only one specific base-pair substitution out of six possible changes. Thus, when mixed, all six base substitution mutations can be represented in one culture. This kit also contains TA98 for the detection of frameshift mutations.

[5] = Mycobacterium tuberculosis, H37RV
[6] = human, microsomes, pH 7.4, Metabolic Stability Half life (human, min.)
[7] = human, microsomes, pH 7.4, human liver microsomes, read-out: Metabolic Stability (liver microsome intrinsic clearance) Clearance (human, μl/min./mg protein)
[8] = mouse, microsomes, pH 7.4, Metabolic Stability Half life (mouse, min.)
[9] = mouse, microsomes, pH 7.4, mouse liver microsomes, read-out: Metabolic Stability (liver microsome intrinsic clearance) Clearance (mouse, μl/min./mg protein)

SMILES	MIC90 [2, 5] [µM]	IC50 [2, 5] [pM]	half-life at 1 µM [3, 8] [h]	microsomal CLint at 1 µM [3, 9] [µL/min/mg]	GeneTox AmesIIb Score ([4]; Salmonella typhimurium)	further results
CCc1nc2cc(F)ccn2c1C(=O)NCc1ccc(-c2nc3n(n2)CCC(C(F)(F)F)C3)cc1 (racemic) [Compound 7ab]	–	–	–	–	–	Chemical stability data, Buffer pH2 ([1]; buffer pH2/DMSO, 72 h stirring at rt): 100%; Chemical stability data, Buffer pH4 ([1]; buffer pH4/DMSO, 72 h stirring at rt): 100%; Chemical stability data, Buffer pH7 ([1]; buffer pH7/DMSO, 72 h stirring at rt): 100%; Chemical stability data, Vehicle DMSO ([1]; reference DMSO solution, 72 h stirring at rt): 100%; Bacterial activity pMIC50 [2]: 8.362; MIC90 [2]: 0.014 µM (≈ 0.00681 µg/mL); Metabolic Stability (liver microsome intrinsic clearance) Clearance (mouse, μl/min./mg protein) ([3]; mouse liver microsomes): 20.5 μl/min./mg protein; Metabolic Stability Half life (mouse, min.) ([3]; mouse liver microsomes): 1.13 h
CCc1nc2ncc(C)cn2c1C(=O)NCc1ccc(-c2nc3n(n2)CCC(C(F)(F)F)C3)cc1 (single isomer, unassigned) [Compound 1a]	0.009 (≈ 0.00435 µg/mL)	3130	> 3	< 7.7	–	Chemical stability data, Vehicle DMSO ([1]; 72 h, 50 µM): 100%; Chemical stability data, Buffer pH2 ([1]; 72 h, 50 µM, pH 2): 100%; Chemical stability data, Buffer pH4 ([1]; 72 h, 50 µM, pH 4): 100%; Chemical stability data, Buffer pH7 ([1]; 72 h, 50 µM, pH 7): 100%; half-life at 1 µM [3, 6]: > 3 h; microsomal CLint at 1 µM [3, 7]: < 7.7 µL/min/mg
O=C(NCc1ccc(-c2nc3n(n2)CCC(C(F)(F)F)C3)cc1)c1c(C(F)(F)F)nc2ncccn12 (single isomer, unassigned) [Compound 2a]	–	–	–	–	–	GeneTox AmesIIb Score [4]: 1; Bacterial activity pMIC50 [2]: 7.648; MIC90 [2]: 0.086 µM (≈ 0.0438 µg/mL); Metabolic Stability (liver microsome intrinsic clearance) Clearance (human, μl/min./mg protein) ([3]; human, microsomes): <7.7 μl/min./mg protein; Metabolic Stability Half life (human, min.) ([3]; human, microsomes): >3 h; Metabolic Stability (liver microsome intrinsic clearance) Clearance (mouse, μl/min./mg protein) ([3]; mouse, microsomes): 11.4 μl/min./mg protein; Metabolic Stability Half life (mouse, min.) ([3]; mouse, microsomes): 2.02 h
O=C(NCc1ccc(-c2nc3n(n2)CCC(C(F)(F)F)C3)cc1)c1c(C(F)(F)F)nc2ncccn12 (single isomer, unassigned) [Compound 2b]	–	–	–	–	–	GeneTox AmesIIb Score [4]: 1; Bacterial activity pMIC50 [2]: 7.502; MIC90 [2]: 0.098 µM (≈ 0.0499 µg/mL); Metabolic Stability (liver microsome intrinsic clearance) Clearance (human, μl/min./mg protein) ([3]; human, microsomes): <7.7 μl/min./mg protein; Metabolic Stability Half life (human, min.) ([3]; human, microsomes): >3 h; Metabolic Stability (liver microsome intrinsic clearance) Clearance (mouse, μl/min./mg protein) ([3]; mouse, microsomes): 12.3 μl/min./mg protein; Metabolic Stability Half life (mouse, min.) ([3]; mouse, microsomes): 1.87 h
CCc1nc2ncc(C)cn2c1C(=O)NCc1ccc(-c2cn3c(n2)CC(C(F)(F)F)CC3)cc1 (single isomer, unassigned) [Compound 3b]	–	–	–	–	–	GeneTox AmesIIb Score [4]: 1; Bacterial activity pMIC50 [2]: 8.483; MIC90 [2]: 0.010 µM (≈ 0.00483 µg/mL); Metabolic Stability (liver microsome intrinsic clearance) Clearance (human, μl/min./mg protein) ([3]; human, microsomes): 26.1 μl/min./mg protein; Metabolic Stability Half life (human, min.) ([3]; human, microsomes): 0.887 h; Metabolic Stability (liver microsome intrinsic clearance) Clearance (mouse, μl/min./mg protein) ([3]; mouse, microsomes): 23.8 μl/min./mg protein; Metabolic Stability Half life (mouse, min.) ([3]; mouse, microsomes): 0.972 h
CCc1nc2nc(C)ccn2c1C(=O)NCc1ccc(-c2nc3n(n2)CCC(C(F)(F)F)C3)cc1 (centres unmarked) [Compound 5b]	–	–	–	–	–	GeneTox AmesIIb Score [4]: 1; Bacterial activity pMIC50 [2]: 7.873; MIC90 [2]: 0.044 µM (≈ 0.0213 µg/mL); Metabolic Stability (liver microsome intrinsic clearance) Clearance (mouse, μl/min./mg protein) ([3]; mouse, microsomes): <7.7 μl/min./mg protein; Metabolic Stability Half life (mouse, min.) ([3]; mouse, microsomes): >3 h
CCc1nc2ncc(C)cn2c1C(=O)NCc1ccc(-c2nc3n(n2)CCC(C(F)(F)F)C3)c(C)n1 (centres unmarked) [Compound 37]	0.0035 (≈ 0.00174 µg/mL)	12600	> 2.8	< 7.7	1	–
CCc1nc2ncc(C)cn2c1C(=O)NCc1cc(C)c(-c2nc3n(n2)CCC(C(F)(F)F)C3)cn1 (centres unmarked) [Compound 38]	0.052 (≈ 0.0259 µg/mL)	17000	> 3	< 7.7	1	–
CCc1nc2ncc(C)cn2c1C(=O)NCc1ccc(-c2nc3n(n2)CCC(C(F)(F)F)C3)cn1 (centres unmarked) [Compound 39]	0.16 (≈ 0.0775 µg/mL)	49000	> 3	< 7.7	1	–
CCc1nc2ccc(F)cn2c1C(=O)NCc1ccc(-c2nc3n(n2)CC[C@H](C(F)(F)F)C3)cc1 [Compound 50]	0.11 (≈ 0.0535 µg/mL)	28200	1.97	11.7	1	–
[2H]C([2H])([2H])c1cnc2nc(CC)c(C(=O)NCc3ccc(-c4nc5n(n4)CC[C@H](C(F)(F)F)C5)cc3)n2c1 [Compound 51]	0.008 (≈ 0.00389 µg/mL)	3160	> 3	< 7.7	1	–
CCc1cnc2nc(CC)c(C(=O)NCc3ccc(-c4nc5n(n4)CC[C@@H](C(F)(F)F)C5)cc3)n2c1 [Compound 59]	0.061 (≈ 0.0303 µg/mL)	17800	0.39	59.4	1	half-life at 1 µM [3, 6]: 0.0667 h; microsomal CLint at 1 µM [3, 7]: 347 µL/min/mg
CCc1cnc2nc(CC)c(C(=O)NCc3ccc(-c4nc5n(n4)CC[C@H](C(F)(F)F)C5)cc3)n2c1 [Compound 62]	0.033 (≈ 0.0164 µg/mL)	11000	0.4	57.8	1	half-life at 1 µM [3, 6]: 0.0783 h; microsomal CLint at 1 µM [3, 7]: 294 µL/min/mg
CCc1nc2ncc(C)cn2c1C(=O)NCc1ccc(-c2cn3c(n2)CC(C)CC3)cc1 (centres unmarked) [Compound 89]	0.046 (≈ 0.0197 µg/mL)	14100	> 3	< 7.7	1	–
CCc1nc2nc(C)ccn2c1C(=O)NCc1ccc(-c2cn3c(n2)CC(C)CC3)cc1 (centres unmarked) [Compound 91]	0.48 (≈ 0.206 µg/mL)	191000	> 3	< 7.7	1	–
CCc1nc2ncc(C)cn2c1C(=O)NCc1ccc(-c2cc3n(n2)CCCC3)cc1 [Compound 95]	0.011 (≈ 0.00456 µg/mL)	3630	0.978	0.012	1	half-life at 1 µM [3, 6]: > 9.33 h; microsomal CLint at 1 µM [3, 7]: < 1.2 µL/min/mg
CCc1nc2ncc(C)cn2c1C(=O)NCc1ccc(-c2nc3n(n2)CCC(COC)C3)cc1 (centres unmarked) [Compound 102]	0.058 (≈ 0.0267 µg/mL)	25700	> 3	< 7.7	1	–
CCc1nc2ncc(C)cn2c1C(=O)NCc1ccc(-c2nc3n(n2)CCC(C(C)(F)F)C3)c(F)c1 (centres unmarked) [Compound 106]	0.03 (≈ 0.0149 µg/mL)	12000	1.92	12.1	1	–
